Values quoted from earlier work in patent publication US8247348B1, “Method of preserving cut plant material” (priority 2007, dated 2012).

SMILES | type of antifungal action (fungi) | pH at which effective (fungi; effective only in acidic conditions) | amount that can be lethal (humans; adults, as little as (2 tablespoons)) [milliliters] | estimated LD100 (humans; in humans)
O=C([O-])c1ccccc1.[Na+] [Sodium benzoate] | fungistatic not fungicidal | < 4.5 | – | –
OCCO [Ethylene glycol] | – | – | 30 | approximately 1.4 ml/kg
